Source: patent US20240150377A1, “MODULATORS OF CYSTIC FIBROSIS TRANSMEMBRANE CONDUCTANCE REGULATOR” (VERTEX PHARMACEUTICALS INCORPORATED, priority 2020, published 2024)
Read-outs that look alike come from different tables or passages of the source.

Target: CFTR (Homo sapiens, UniProt P13569)
Experiment: Membrane potential dye, Enteroid Assay B
Format: cell-based
Settings: for EC50: read-out: Ent. B EC50; for Ent. B Max Activity: chloride transport as % of triple combination control (Enteroid Assay B)
Method in brief: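 Human intestinal enteroids were treated with compound in maintenance medium for 18-24 h at 37° C, then loaded with methyl oxonol membrane-potential dye (25 min, room temperature). Chloride transport was triggered in chloride-free buffer with 10 μM forskolin, 100 μM IBMX and 300 nM Compound III, fluorescence read 15 min; expressed as % of triple-combination control.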

[1] = Table 7, human enteroid cells, 18-24 hours, acute 10 μM forskolin and 300 nM ivacaftor
[2] = Table 8, human enteroid cells, 18-24 hours, acute 10 μM forskolin and 300 nM ivacaftor

Chain of CFTR (P13569 with tags, fused parts or gaps DEL508-508): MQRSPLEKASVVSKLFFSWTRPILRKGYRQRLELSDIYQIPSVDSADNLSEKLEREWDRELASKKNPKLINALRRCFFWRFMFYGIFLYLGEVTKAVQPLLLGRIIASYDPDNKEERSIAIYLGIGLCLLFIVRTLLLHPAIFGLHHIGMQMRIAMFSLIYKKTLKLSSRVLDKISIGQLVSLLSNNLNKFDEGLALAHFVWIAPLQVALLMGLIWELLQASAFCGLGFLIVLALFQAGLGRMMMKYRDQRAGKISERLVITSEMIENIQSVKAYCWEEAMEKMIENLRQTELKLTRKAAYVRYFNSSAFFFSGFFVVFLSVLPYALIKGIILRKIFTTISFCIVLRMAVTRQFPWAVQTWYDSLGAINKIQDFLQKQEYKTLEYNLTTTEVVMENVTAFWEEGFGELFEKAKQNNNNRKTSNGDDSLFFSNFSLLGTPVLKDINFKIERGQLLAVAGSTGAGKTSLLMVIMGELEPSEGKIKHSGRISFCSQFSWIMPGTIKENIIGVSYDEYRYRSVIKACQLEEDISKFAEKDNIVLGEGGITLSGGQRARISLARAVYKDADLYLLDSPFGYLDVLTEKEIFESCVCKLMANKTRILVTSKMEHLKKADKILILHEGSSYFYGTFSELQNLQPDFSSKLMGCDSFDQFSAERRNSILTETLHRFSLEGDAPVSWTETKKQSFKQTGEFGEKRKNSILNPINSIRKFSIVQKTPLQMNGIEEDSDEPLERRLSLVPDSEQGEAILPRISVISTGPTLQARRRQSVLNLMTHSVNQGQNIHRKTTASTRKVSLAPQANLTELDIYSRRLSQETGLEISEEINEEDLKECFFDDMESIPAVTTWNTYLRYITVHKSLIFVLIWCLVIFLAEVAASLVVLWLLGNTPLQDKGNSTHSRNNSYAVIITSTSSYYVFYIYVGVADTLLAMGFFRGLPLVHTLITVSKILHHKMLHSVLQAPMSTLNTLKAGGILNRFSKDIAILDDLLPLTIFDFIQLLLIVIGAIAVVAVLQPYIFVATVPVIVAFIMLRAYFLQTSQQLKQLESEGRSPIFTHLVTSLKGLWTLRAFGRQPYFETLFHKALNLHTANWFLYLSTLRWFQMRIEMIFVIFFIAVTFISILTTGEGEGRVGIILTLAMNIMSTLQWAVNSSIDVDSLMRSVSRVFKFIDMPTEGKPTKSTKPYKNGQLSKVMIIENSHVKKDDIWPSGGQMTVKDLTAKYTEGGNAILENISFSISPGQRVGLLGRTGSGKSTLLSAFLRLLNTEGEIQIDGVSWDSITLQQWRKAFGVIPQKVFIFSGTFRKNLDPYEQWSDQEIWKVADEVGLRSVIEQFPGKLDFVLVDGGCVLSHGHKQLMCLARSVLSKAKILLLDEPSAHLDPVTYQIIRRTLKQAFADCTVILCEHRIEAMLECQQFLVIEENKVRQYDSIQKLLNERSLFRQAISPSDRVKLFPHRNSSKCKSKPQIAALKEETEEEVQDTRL

Ent. B Max Activity (%) (Table 9)	EC50 (Table 9) [nM]	Ent. B Max Activity (Table 8)	EC50 [2] [nM]	SMILES	other results
+++ (+++ is >600%)	< 1000			Cc1cccc(C)c1-c1cc2nc(n1)NS(=O)(=O)c1cccc(c1)C(=O)N(C[C@H]1CC[C@@H](C(C)(C)O)CC1)[C@H](CC(C)(C)C)CO2 [Compound 796]	
+++ (+++ is >600%)	< 1000			Cc1cccc(C)c1-c1cc2nc(n1)NS(=O)(=O)c1cccc(c1)C(=O)N(CCc1ccc(C(C)(C)O)cc1)[C@H](CC(C)(C)C)CO2 [Compound 108, (11R)-6-(2,6-Dimethylphenyl)-11-(2,2-dimethylpropyl)-12-[2-[4-(1-hydroxy-1-methyl-ethyl)phenyl]ethyl]-2,2-dioxo-9-oxa-2λ^6-thia-3,5,12,19-tetrazatricyclo[12.3.1.14,8]nonadeca-1(18),4(19),5,7,14,16-hexaen-13-one]	
+++ (+++ is >600%)	< 1000			Cc1cccc(C)c1-c1cc2nc(n1)NS(=O)(=O)c1cccc(c1)C(=O)N(Cc1ccc(C(F)(F)F)cn1)[C@H](CC(C)(C)C)CO2 [Compound 806]	
+ (+ is <300%)	3000 to 30000			Cc1cccc(C)c1-c1cc2nc(n1)NS(=O)(=O)c1cccc(c1)C(=O)N(CC1CN(C(=O)CO)C1)[C@H](CC(C)(C)C)CO2 [Compound 319]	
				Cc1cccc(C)c1-c1cc2nc(n1)NS(=O)(=O)c1cccc(c1)C(=O)N(CCN(C)C(=O)OC(C)C)[C@H](CC(C)C)CO2 [Compound 91, Isopropyl N-[2-[(11R)-6-(2,6-dimethylphenyl)-11-isobutyl-2,2,13-trioxo-9-oxa-2λ^6-thia-3,5,12,19-tetrazatricyclo[12.3.1.14,8]nonadeca-1(18),4(19),5,7,14,16-hexaen-12-yl]ethyl]-N-methyl-carbamate]	Ent. B Max Activity (Table 7): +++ (+++ is >60%); EC50 [1]: < 1000 nM
		+++ (+++ is >60%)	< 1000	Cc1cccc(C)c1-c1cc2nc(n1)NS(=O)(=O)c1cccc(c1)C(=O)N(Cc1ccc(NC(=O)OC(C)C)nc1)[C@H](CC(C)(C)C)CO2 [Compound 401]	
		+++ (+++ is >60%)	< 1000	Cc1cccc(C)c1-c1cc2nc(n1)NS(=O)(=O)c1cccc(c1)C(=O)N(Cc1ccccn1)[C@H](CC(C)(C)C)CO2 [Compound 124, (11R)-6-(2,6-Dimethylphenyl)-11-(2,2-dimethylpropyl)-12-[(pyridin-2-yl)methyl]-9-oxa-2λ^6-thia-3,5,12,19-tetraazatricyclo[12.3.1.14,8]nonadeca-1(17),4,6,8(19),14(18),15-hexaene-2,2,13-trione]	
		+++ (+++ is >60%)	< 1000	Cc1cccc(C)c1-c1cc2nc(n1)NS(=O)(=O)c1cccc(c1)C(=O)N(CC(C)(C)O)[C@H](CC(C)C)CO2 [Compound 43, (11R)-6-(2,6-Dimethylphenyl)-12-(2-hydroxy-2-methyl-propyl)-11-isobutyl-2,2-dioxo-9-oxa-2λ^6-thia-3,5,12,19-tetrazatricyclo[12.3.1.14,8]nonadeca 1(18),4(19),5,7,14,16-hexaen-13-one]	
+++ (+++ is >600%)	< 1000			Cc1cccc(C)c1-c1cc2nc(n1)NS(=O)(=O)c1cccc(c1)C(=O)N(CC13CCC(O)(CC1)CC3)[C@H](CC(C)(C)C)CO2 [Compound 800]	
		+++ (+++ is >60%)	< 1000	Cc1cccc(C)c1-c1cc2nc(n1)NS(=O)(=O)c1cccc(c1)CN(CCCCO)[C@H](CC(C)C)CO2 [Compound 46, 4-[(11R)-6-(2,6-Dimethylphenyl)-11-isobutyl-2,2-dioxo-9-oxa-2λ^6-thia-3,5,12,19-tetrazatricyclo[12.3.1.14,8]nonadeca-1(18),4(19),5,7,14,16-hexaen-12-yl]butan-1-ol]	
		+++ (+++ is >60%)	< 1000	Cc1cccc(C)c1-c1cc2nc(n1)NS(=O)(=O)c1cccc(c1)C(=O)N([C@H](C)c1ccccc1)[C@H](CC(C)(C)C)CO2 [Compound 1079]	
		+++ (+++ is >60%)	< 1000	Cc1cccc(C)c1-c1cc2nc(n1)NS(=O)(=O)c1cccc(n1)C(=O)N(Cc1ccccn1)[C@H](CC(C)(C)C)CO2 [Compound 1084]	
				Cc1cccc(C)c1-c1cc2nc(n1)NS(=O)(=O)c1cccc(c1)C(=O)N(CCCNC(=O)OC(C)C)[C@H](CC(C)C)CO2 [Compound 408]	Ent. B Max Activity (Table 7): +++ (+++ is >60%); EC50 [1]: < 1000 nM
+++ (+++ is >600%)	< 1000			Cc1cccc(C)c1-c1cc2nc(n1)NS(=O)(=O)c1cccc(c1)C(=O)N(Cc1ccc3c(c1)CC(C)(C)O3)[C@H](CC(C)(C)C)CO2 [Compound 798]	
		+++ (+++ is >60%)	< 1000	COC(=O)Nc1cccc(CN2C(=O)c3cccc(c3)S(=O)(=O)Nc3nc(cc(-c4c(C)cccc4C)n3)OC[C@H]2CC(C)(C)C)c1 [Compound 506]	
		+++ (+++ is >60%)	< 1000	Cc1cccc(C)c1-c1cc2nc(n1)NS(=O)(=O)c1cccc(c1)C(=O)N(C)CC(c1ccc(CC3(C(F)(F)F)CC3)cn1)O2 (single isomer, unassigned) [Compound 104, 6-(2,6-dimethylphenyl)-12-methyl-10-(5-{[1-(trifluoromethyl)cyclopropyl]methyl}pyridin-2-yl)-9-oxa-2λ^6-thia-3,5,12,19-tetraazatricyclo[12.3.1.14,8]nonadeca-1(17),4(19),5,7,14(18),15-hexaene-2,2,13-trione]	
		+ (+ is <30%)		Cc1cccc(C)c1-c1cc2nc(n1)NS(=O)(=O)c1cccc(c1)C(=O)N(CCCC(C)(C)O)[C@H](CCC(C)(C)O)CO2 [Compound 660]	
+++ (+++ is >600%)	< 1000			Cc1cccc(C)c1-c1cc2nc(n1)NS(=O)(=O)c1cccc(c1)C(=O)N(Cc1ncccc1NC(=O)OC(C)C)[C@H](CC(C)(C)C)CO2 [Compound 392]	
+++ (+++ is >600%)				CCCc1ccc(CN2C(=O)c3cccc(c3)S(=O)(=O)Nc3nc(cc(-c4c(C)cccc4C)n3)OC[C@H]2CC(C)(C)C)cc1 [Compound 793]	
		+++ (+++ is >60%)	< 1000	CC(=O)N(C)CCN1C(=O)c2cccc(c2)S(=O)(=O)Nc2nc(cc(-c3c(C)cccc3C)n2)OC[C@H]1CC(C)C [Compound 405]	
+++ (+++ is >600%)	< 1000			CC(=O)Nc1cccnc1CN1C(=O)c2cccc(c2)S(=O)(=O)Nc2nc(cc(-c3c(C)cccc3C)n2)OC[C@H]1CC(C)(C)C [Compound 393]	
		+++ (+++ is >60%)	< 1000	Cc1cccc(C)c1-c1cc2nc(n1)NS(=O)(=O)c1cccc(c1)C(=O)N(Cc1cccc(CN(C)C)c1)[C@H](CC(C)C)CO2 [Compound 1102]	
		++ (++ is 30-60%)	< 1000	Cc1cccc(C)c1-c1cc2nc(n1)NS(=O)(=O)c1cc(nn1C)C(=O)N(Cc1ccc(C(C)(C)O)cc1)[C@H](CC(C)(C)C)CO2 [Compound 927]	

SMILES	Ent. B Max Activity (%) (Table 9)	EC50 (Table 9) [nM]	Ent. B Max Activity (Table 8)	EC50 [2] [nM]	other results
Cc1cccc(C)c1-c1cc2nc(n1)NS(=O)(=O)c1cccc(c1)C(=O)N(CC1CC(O)(Cc3ccccc3)C1)[C@H](CC(C)(C)C)CO2 (single isomer, unassigned) [Compound 68]	+++ (+++ is >600%)	< 1000			
Cc1cccc(C)c1-c1cc2nc(n1)NS(=O)(=O)c1cccc(c1)C(=O)N(CC1CC(O)(Cc3ccccc3)C1)[C@H](CC(C)(C)C)CO2 (single isomer, unassigned) [Compound 67]	+++ (+++ is >600%)	< 1000			
